Here are results for 11 molecules from patent US11207320B2, “Compositions and methods for cancer expressing PDE3A or SLFN12” (The Broad Institute, Inc., priority 2015, dated 2021).

The test system of data set [1] is HeLa cells. Type of data set: cell-based. The conditions noted are these: 48 hours; for rescue of cell death induced by DNMDP, rank in bioactives screen: 20 μM compound + 30 nM DNMDP, 1600 compounds; for rescue of DNMDP cytotoxicity / competition with DNMDP: dose-response up to 10 μM, co-treated with DNMDP. The procedure:
HeLa cells were co-treated with 30 nM DNMDP (the EC70 concentration) and 20 μM of each bioactive compound. Cell viability after 48-hour treatment was assessed by ATP consumption as described earlier.
1000 HeLa cells were plated in a 384-well plate in 40 μl of DMEM supplemented with 10% Fetal Bovine Serum and 1% Pen/Strep. 24 hours after plating, a compound-library of 1600 bioactive molecules (Pharmacon) was added at a concentration of 20 μM. In parallel to bioactive compound incubation, DNMDP was added to a final concentration of 30 nM and incubated for 48 hours. Cell viability was assessed as described in Compound library screening in NCI-H1734 and A549 cell lines.

The test system of data set [2] is HeLa cells. Kind of data set: DNMDP cytotoxicity after targeting PDE3A locus using CRISPR. Type of data set: cell-based. The conditions noted are these: HeLa infected with Cas9 and sgRNAs against PDE3A. The procedure: FIG. 11A is a Western blot. HeLa cells were infected with Cas9 and indicated guide RNAs (sgRNA) against PDE3A. Western blots were probed for PDE3A at indicated time points. FIG. 11B is a bar graph showing percent rescue of HeLa cells that were infected with indicated sgRNAs for two weeks and treated with 1 μM of 6-(4-(diethylamino)-3-nitrophenyl)-5-methyl-4,5-dihydropyridazin-3(2H)-one (DNMDP) for 48 hours. Percent rescue was normalized to the Cas9-only control. FIG. 11C is a plot showing viability of cells infected with indicated sgRNAs and treated with various concentrations of 6-(4-(diethylamino)-3-nitrophenyl)-5-methyl-4,5-dihydropyridazin-3(2H)-one (DNMDP).
Based on the observations that DNMDP-sensitive cells expressed high levels of PDE3A, and that DNMDP competed with non-cytotoxic inhibitors for PDE3A binding, it was hypothesized that DNMDP mediated its cytotoxic phenotype through the interaction with PDE3A and that PDE3A abundance was a direct cellular determinant of DNMDP sensitivity. To validate this hypothesis, the effect of reducing levels of PDE3A on the response to DNMDP was tested. […] In an independent approach using an siRNA smart-pool containing four different siRNAs targeting PDE3A, PDE3A expression was reduced in HeLa cell line with a maximum efficiency of 70% between 24 and 72 hours after transfection. […]

The target in the next data set is T1, PDE3A(677-1141) (Homo sapiens, UniProt Q14432).
T1 construct: purified PDE3A catalytic domain, PDE3A(677-1141)
Kind of data set: Differential scanning fluorimetry (DSF) binding. The conditions noted are these: 5 μM protein, 100 μM compound. The method, then:
Binding buffer: 20 mM Hepes pH 7.4, 100 μM TCEP, 1 mM MgCl2, 150 mM NaCl.
In general terms: In DSF a fluorescence change marks the thermal transition of the protein.

The target in the next data set is T2, PDE3A and SLFN12 (Homo sapiens, UniProt Q14432).
T2 construct: Endogenous PDE3A was immunoprecipitated; host or cells: HeLa
Kind of data set: Validation of DNMDP-induced PDE3A protein interactions using immunoprecipitation and immunoblotting. The data set is classed as cell-based. The conditions noted are these: FIG. 20, affinity reagents, immunoblot. The method, then:
FIG. 19 is an immunoblot showing that DNMDP induces interaction between PDE3A and SIRT7 and SLFN12 in HeLa cells. HeLa cells were transfected with indicated plasmids and treated with indicated compounds with a final concentration of 10 μM for four hours. Endogenous PDE3A was immunoprecipitated and immunoblotted for V5 to identify novel interaction with SIRT7 and SLFN12 (upper two panels). Immunoprecipitate input was immunoblotted for PDE3A and V5 (lower two panels). V5-SLFN12 was undetectable in whole cell lysate.
FIG. 20 is an immunoblot showing confirmation of mass spectrometric results herein using affinity reagents.
HeLa cells were transfected with ORF overexpression constructs expressing V5-tagged SIRT7, V5-tagged SLFN12, or V5-tagged GFP. ORF expression constructs were obtained from the TRC (clone IDs: TRCN0000468231, TRCN0000476272, ccsbBroad304_99997). At 72 hours post transfection, cells were treated with 10 μM DNMDP or trequinsin for 4 hours followed by lysis using the ModRipa lysis buffer and immunoprecipitation of PDE3A. For each condition, 2 mg total protein lysate was incubated with 1 μg of anti-PDE3A antibody at 4° C. overnight, after which 7.5 μl each of Protein A- and Protein G-Dynabeads (Life Technologies 10001D and 10003D) were added and incubated for another 1 hour. Beads were washed and bound proteins were eluted with 30 μl of LDS PAGE gel loading buffer. Input (˜60 μg total protein lysate) and IP products were resolved on 4-12% Tris-Glycine PAGE gels and immunoblotted with an anti-V5 antibody (Life Technologies R96205, 1:5000), the Bethyl anti-PDE3A antibody (1:1000), and secondary antibodies from LiCOR Biosciences (Cat.#926-32210 and 926068021, each at 1:10,000). Blots were washed and imaged using a LiCOR Odyssey infrared imager.

Data set [3] relates to HeLa cells. Kind of data set: Compound sensitivity testing in cell lines (48 h viability). Type of data set: cell-based. The conditions noted are these: HeLa. The procedure:
1500 NCI-H1734 or 1000 A549 cells were plated in a 384-well plate in 40 μl of RPMI supplemented with 10% Fetal Bovine Serum and 1% Pen/Strep. 24 hours after plating, a compound-library of 1924 small molecules was added at a concentration of 10 μM. Staurosporine was used a positive control for cytotoxicity at a concentration of 10 μM, and DMSO was used a negative control at a concentration of 1%. All compounds were incubated for 48 hours with indicated small molecules. After 48 hours, 384-well plates were removed from the incubator and allowed to cool to room temperature for 20 minutes. Cell viability was assessed by adding 40 μl of a 25% CELLTITERGLO® (Promega) in PBS with a THERMO COMBI™ or multichannel-pipette and incubated for 10 minutes. The luminescence signal was read using a Perkin-Elmer EnVision. Viability percentage was calculated by normalizing to DMSO controls.
1000 HeLa (DMEM), 1000 A549 (RPMI), 500 MCF-7 (DMEM), 4000 PC3 (F12-K), 1000 NCI-H2122 (RPMI) or 1500 NCI-H1563 (RPMI) cells were plated in a 384-well plate in 40 μl of corresponding growth media supplemented with 10% Fetal Bovine Serum. 24 hours after plating, indicated compounds were added at indicated concentrations and incubated for 48 hours. Cell viability was assessed as described in Compound library screening in NCI-H1734 and A549 cell lines.

Another data set deals with PDE3A (Homo sapiens, UniProt Q14432). Kind of data set: Linker-affinity purification of molecular target of DNMDP and immunoblotting. The data set is classed as binding. Also on record: Immunoprecipitation of endogenous PDE3A in HeLa cells; endogenous in cells; host or cells: HeLa. The conditions noted are these: HeLa cell lysate, competitor 10 μM, immunoblot for PDE3A. The procedure: To identify the molecular target of DNMDP, an affinity purification was performed using an (R)-des-nitro-DNMDP solid-phase tethered linker analogue (FIG. 10A) incubated with HeLa cell lysate. […] It was competed for the molecular target by adding either an excess of trequinsin or separate enantiomers of DNMDP, where only the (R)-enantiomer was cytotoxic. […] Binding of PDE3A to the linker analogue was blocked by both trequinsin and (R)-DNMDP, but not by the non-cytotoxic enantiomer (S)-[…]. 9C). Thus both trequinsin and (R)-DNMDP prevented the binding of PDE3A to the tethered DNMDP analogue, and it was concluded that both molecules bind PDE3A directly. HeLa cells were washed with ice-cold PBS before lysed with NP-40 lysis buffer (150 mM NaCl, 10% glycerol, 50 mM Tris-Cl pH 8.0, 50 mM MgCl2, 1% NP-40) supplemented with EDTA-free protease inhibitors (Roche) and phosphatase inhibitor mixtures I and II (Calbiochem). […] Samples were washed three times with lysis buffer containing corresponding compound concentrations of 10 μM. Proteins bound to Affi-Gel 102 resin were reduced, denatured, and separated using Tris-Glycine gels (Novex) and transferred to nitrocellulose membranes using the iBlot transfer system (Novex). Membranes were incubated overnight at 4° C. with primary antibodies against PDE3A (1:1000, Bethyl). […]
Background: In western blotting, separated proteins are transferred to a membrane and probed.

T1 sequence (Q14432 677-1141): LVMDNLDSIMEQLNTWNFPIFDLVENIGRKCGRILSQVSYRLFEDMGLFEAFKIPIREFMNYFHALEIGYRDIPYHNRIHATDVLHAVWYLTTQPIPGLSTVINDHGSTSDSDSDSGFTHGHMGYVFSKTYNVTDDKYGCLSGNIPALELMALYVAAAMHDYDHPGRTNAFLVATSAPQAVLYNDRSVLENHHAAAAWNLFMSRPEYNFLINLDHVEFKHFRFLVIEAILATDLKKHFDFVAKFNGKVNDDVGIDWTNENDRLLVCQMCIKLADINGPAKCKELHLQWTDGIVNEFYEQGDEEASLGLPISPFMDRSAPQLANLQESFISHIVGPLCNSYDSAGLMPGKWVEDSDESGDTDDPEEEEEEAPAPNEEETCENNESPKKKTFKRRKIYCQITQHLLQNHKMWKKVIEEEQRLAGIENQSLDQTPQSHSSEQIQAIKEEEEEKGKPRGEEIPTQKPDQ
PDE3A, sequence (Q14432 whole entry): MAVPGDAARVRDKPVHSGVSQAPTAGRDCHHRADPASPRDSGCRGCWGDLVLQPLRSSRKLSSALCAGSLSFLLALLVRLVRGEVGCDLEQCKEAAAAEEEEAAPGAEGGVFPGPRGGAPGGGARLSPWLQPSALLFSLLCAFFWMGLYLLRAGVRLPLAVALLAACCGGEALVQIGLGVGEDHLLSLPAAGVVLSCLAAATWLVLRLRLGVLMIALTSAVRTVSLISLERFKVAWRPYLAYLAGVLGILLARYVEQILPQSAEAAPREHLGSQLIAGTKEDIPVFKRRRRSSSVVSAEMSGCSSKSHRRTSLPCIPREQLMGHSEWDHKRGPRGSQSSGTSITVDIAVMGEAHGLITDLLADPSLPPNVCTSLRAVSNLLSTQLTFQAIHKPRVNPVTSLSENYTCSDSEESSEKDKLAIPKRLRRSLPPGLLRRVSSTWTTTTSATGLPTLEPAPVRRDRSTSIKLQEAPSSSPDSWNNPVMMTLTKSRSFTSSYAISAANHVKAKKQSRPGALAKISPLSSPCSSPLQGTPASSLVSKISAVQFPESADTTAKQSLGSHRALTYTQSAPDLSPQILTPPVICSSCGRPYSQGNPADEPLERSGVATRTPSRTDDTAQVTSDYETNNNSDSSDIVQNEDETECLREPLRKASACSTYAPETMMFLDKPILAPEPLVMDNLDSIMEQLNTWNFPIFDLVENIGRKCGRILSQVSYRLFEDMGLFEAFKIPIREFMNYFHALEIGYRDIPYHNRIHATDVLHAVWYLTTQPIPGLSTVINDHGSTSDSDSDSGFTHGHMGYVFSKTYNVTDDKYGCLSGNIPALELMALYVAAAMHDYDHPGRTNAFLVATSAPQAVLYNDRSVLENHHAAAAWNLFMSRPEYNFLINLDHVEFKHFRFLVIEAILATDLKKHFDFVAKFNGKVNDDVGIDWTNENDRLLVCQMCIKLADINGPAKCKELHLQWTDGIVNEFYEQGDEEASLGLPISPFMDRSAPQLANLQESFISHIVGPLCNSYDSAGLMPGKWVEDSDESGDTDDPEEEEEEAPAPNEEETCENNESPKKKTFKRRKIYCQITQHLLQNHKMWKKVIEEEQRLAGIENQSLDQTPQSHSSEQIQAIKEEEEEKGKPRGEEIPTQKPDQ
T2 sequence (Q14432 whole entry): as above
T2 sequence (Q8IYM2 whole entry partner): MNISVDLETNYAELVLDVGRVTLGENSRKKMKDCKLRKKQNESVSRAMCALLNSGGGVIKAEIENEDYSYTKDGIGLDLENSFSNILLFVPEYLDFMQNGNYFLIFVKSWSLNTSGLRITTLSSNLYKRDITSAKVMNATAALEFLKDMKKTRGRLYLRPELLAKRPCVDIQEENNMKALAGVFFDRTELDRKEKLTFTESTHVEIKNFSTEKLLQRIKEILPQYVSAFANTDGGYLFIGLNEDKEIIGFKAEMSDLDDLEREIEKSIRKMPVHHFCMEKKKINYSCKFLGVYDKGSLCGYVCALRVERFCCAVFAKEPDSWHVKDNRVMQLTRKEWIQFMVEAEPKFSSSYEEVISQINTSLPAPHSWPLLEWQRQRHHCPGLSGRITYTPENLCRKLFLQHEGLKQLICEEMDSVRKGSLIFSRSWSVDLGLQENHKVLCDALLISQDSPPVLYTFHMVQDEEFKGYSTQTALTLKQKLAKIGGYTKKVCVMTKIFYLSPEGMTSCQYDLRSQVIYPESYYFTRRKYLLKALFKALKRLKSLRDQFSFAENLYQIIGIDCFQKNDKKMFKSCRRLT

With `Cc1[nH]c(=O)c(C#N)cc1-c1ccncc1` [milrinone, 2-methyl-6-oxo-1,6-dihydro-3,4′-bipyridine-5-carbonitrile], in the data set with HeLa cells [1], the “rescue of cell death induced by DNMDP, rank in bioactives screen” value was “three most potent compounds” and the “rescue of DNMDP cytotoxicity / competition with DNMDP” value is on record as “able to rescue DNMDP cytotoxicity in a dose-dependent manner”. Turning to `CCCc1nn(C)c2c(=O)[nH]c(-c3cc(S(=O)(=O)N4CCN(C)CC4)ccc3OCC)nc12` [sildenafil, 1-[4-ethoxy-3-(6,7-dihydro-1-methyl-7-oxo-3-propyl-1H-pyrazolo[4,3-d]pyrimidin-5-yl)phenylsulfonyl]-4-methylpiperazine], the “rescue of DNMDP cytotoxicity / competition with DNMDP” value with HeLa cells [1] was “not effective competitors”.

Consider `CCN(CCOCCOCCNC(=O)OC(C)(C)C)c1ccc(C2=NNC(=O)C[C@H]2C)cc1` [DNMDP-2L, tert-butyl (R)-(2-(2-(2-(ethyl(4-(4-methyl-6-oxo-1,4,5,6-tetrahydropyridazin-3-yl)phenyl)amino)ethoxy)ethoxy)ethyl)carbamate], for which the “rescue of DNMDP cytotoxicity / competition with DNMDP” value in the data set with HeLa cells [1] is recorded as “same DNMDP cytotoxicity rescue phenotype as non-cytotoxic PDE3 inhibitors”. On the same count and under the same terms, under `CC(C)C(=O)c1c(C(C)C)nn2ccccc12` [idubulast] stands “not effective competitors”; under `CCCc1nc(C)c2c(=O)[nH]c(-c3cc(S(=O)(=O)N4CCN(CC)CC4)ccc3OCC)nn12` [vardenafil, 4-[2-ethoxy-5-(4-ethylpiperazin-1-yl)sulfonyl-phenyl]-9-methyl-7-propyl-3,5,6,8-tetrazabicyclo[4.3.0]nona-3,7,9-trien-2-one], “not effective competitors”. As for `C[C@@H]1CC(=O)NN=C1c1ccc(N2CCOCC2)cc1` [Compound 3], the “rescue of toxicity by PDE3A sgRNA2 and sgRNA3” value in the data set on HeLa cells [2] is on record as “significant rescue of toxicity”. Turning to `CN(C(=O)CCCOc1ccc2[nH]c(=O)ccc2c1)C1CCCCC1` [cilostamide], the “rescue of DNMDP cytotoxicity / competition with DNMDP” value with HeLa cells [1] is on record as “able to rescue DNMDP cytotoxicity in a dose-dependent manner”. For the molecule `O=C1CCc2cc(OCCCCc3nnnn3C3CCCCC3)ccc2N1` [cilostazol, 6-[4-(1-cyclohexyl-1H-tetrazol-5-yl)butoxy]-3,4-dihydro-2(1H)-quinolinone], the “rescue of cell death induced by DNMDP, rank in bioactives screen” value in the data set with HeLa cells [1] is reported as “three most potent compounds”. Consider `O=C1CN2Cc3c(ccc(Cl)c3Cl)N=C2N1` [anagrelide, 6,7-dichloro-1,5-dihydroimidazo (2,1-b)quinazolin-2(3H)-one], for which, on PDE3A(677-1141), the “Tm (° C.)” value worked out at 56.6 ± 0.0 °C and the ΔTm (usually the shift of the melting midpoint relative to a reference) at 100 µM is 4.2 °C. The “PDE3A and SLFN12 complex formation” value on PDE3A and SLFN12 was “weakly”. On to `CCN(CC)c1ccc(C2=NNC(=O)C[C@H]2C)cc1[N+](=O)[O-]` [(R)-DNMDP, (R)-6-(4-(diethylamino)-3-nitrophenyl)-5-methyl-4,5-dihydropyridazin-3(2H)-one], for which, in the data set with HeLa cells [3], the “effect on HeLa cell viability / cytotoxicity” value is on record as “cytotoxic” and the “fold lower EC50 compared to the (S)-enantiomer” value was 500 fold. Moreover, the “blocking of binding of PDE3A to the tethered linker analogue” value on PDE3A is on record as “blocked”. `CCN(CC)c1ccc(C2=NNC(=O)C[C@@H]2C)cc1[N+](=O)[O-]` [(S)-DNMDP]: in the data set on HeLa cells [3], the “effect on HeLa cell viability / cytotoxicity” value is listed as “non-cytotoxic”.
